This assay can be described thus: Potency code of Table 2 (assay not stated).

As for `CCc1nn(C)c(-c2ccc(OCc3ccc(Cl)cc3)cc2O)c1-c1ccccc1` [NUCC-0198302], the Potency code entry is listed as “+ (>40 +)”.
On to `CCc1c(-c2ccccc2)c(-c2ccc(OCc3ccc(Cl)cc3)cc2O)nn1C` [NUCC-0198303], for which the Potency code result was “+ (>40 +)”.
The result for `COc1ccc(-c2c[nH]nc2-c2ccc(OCc3ccc(Cl)cc3)cc2O)cc1` [NUCC-0198304] reads “+ (>40 +)”; that for `COc1ccc(-c2cn(C)nc2-c2ccc(OCc3ccc(Cl)cc3)cc2O)cc1` [NUCC-0198305], “+ (>40 +)”.
As to `COc1ccc(-c2c(C)nn(C)c2-c2ccc(OCc3ccc(Cl)cc3)cc2O)cc1` [NUCC-0198306], the Potency code result is listed as “+ (>40 +)”.
The result for `COc1ccc(-c2c(-c3ccc(OCc4ccc(Cl)cc4)cc3O)nn(C)c2C)cc1` [NUCC-0198307] reads “+ (>40 +)”; that for `COc1cccc(-c2c[nH]nc2-c2ccc(OCc3ccc(Cl)cc3)cc2O)c1` [NUCC-0198308], “+ (>40 +)”; that for `COc1cccc(-c2c(C(F)(F)F)nn(C)c2-c2ccc(OCc3ccc(Cl)cc3)cc2O)c1` [NUCC-0198310], “+ (>40 +)”.
The result for `COc1cccc(-c2c(-c3ccc(OCc4ccc(Cl)cc4)cc3O)nn(C)c2C(F)(F)F)c1` [NUCC-0198311] reads “+ (>40 +)”.
Turning to `COc1cccc(-c2c(-c3ccc(OCc4ccc(Cl)cc4)cc3O)n[nH]c2C)c1` [NUCC-0198312], the Potency code result was “+ (>40 +)”.
With `COc1cccc(-c2c(C)nn(C)c2-c2ccc(OCc3ccc(Cl)cc3)cc2O)c1` [NUCC-0198313] the entry was “+ (>40 +)”; with `COc1cccc(-c2c(-c3ccc(OCc4ccc(Cl)cc4)cc3O)nn(C)c2C)c1` [NUCC-0198314], “+ (>40 +)”.
Regarding `CCc1[nH]nc(-c2ccc(OCc3ccc(Cl)cc3)cc2O)c1-c1cccc(OC)c1` [NUCC-0198315], the Potency code result is reported as “+ (>40 +)”.
Regarding `CCc1nn(C)c(-c2ccc(OCc3ccc(Cl)cc3)cc2O)c1-c1cccc(OC)c1` [NUCC-0198316], the Potency code result is “+ (>40 +)”.
With `CCc1c(-c2cccc(OC)c2)c(-c2ccc(OCc3ccc(Cl)cc3)cc2O)nn1C` [NUCC-0198317] the entry was “+ (>40 +)”.
With `Oc1cc(OCc2ccc(Cl)cc2)ccc1-c1n[nH]cc1-c1cc(C(F)(F)F)cc(C(F)(F)F)c1` [NUCC-0198318] the entry was “++ (30-40 ++)”.
With `Cn1cc(-c2cc(C(F)(F)F)cc(C(F)(F)F)c2)c(-c2ccc(OCc3ccc(Cl)cc3)cc2O)n1` [NUCC-0198319] the entry was “+ (>40 +)”; with `Oc1cc(OCc2ccc(Cl)cc2)ccc1-c1n[nH]cc1-c1cccnc1` [NUCC-0198320], “+ (>40 +)”; with `Cn1cc(-c2cccnc2)c(-c2ccc(OCc3ccc(Cl)cc3)cc2O)n1` [NUCC-0198321], “+ (>40 +)”.
Turning to `Oc1cc(OCc2ccc(Cl)cc2)ccc1-c1n[nH]cc1-c1ccoc1` [NUCC-0198322], the Potency code entry is recorded as “++ (30-40 ++)”.
Take `Cn1ncc(-c2ccoc2)c1-c1ccc(OCc2ccc(Cl)cc2)cc1O` [NUCC-0198323]: the Potency code result was “+ (>40 +)”.
Take `Cn1cc(-c2ccoc2)c(-c2ccc(OCc3ccc(Cl)cc3)cc2O)n1` [NUCC-0198324]: the Potency code entry is “+ (>40 +)”.
For the compound `Oc1c(-c2cc(C(F)(F)F)[nH]n2)ccc(OCc2ccc(Cl)cc2)c1-c1ccoc1` [NUCC-0198325], the Potency code entry is given as “+ (>40 +)”.
With `COc1cccc(-c2cn(C)nc2-c2ccc(OCc3ccc(Cl)cc3)cc2O)c1` [NUCC-0198326] the entry was “+ (>40 +)”.
The result for `Cc1cc(C)cc(-c2c[nH]nc2-c2ccc(OCc3ccc(Cl)cc3)cc2O)c1` [NUCC-0198352] reads “+ (>40 +)”; that for `Cc1cc(C)cc(-c2cn(C)nc2-c2ccc(OCc3ccc(Cl)cc3)cc2O)c1` [NUCC-0198353], “+ (>40 +)”; that for `Cc1cc(C)cc(-c2cnn(C)c2-c2ccc(OCc3ccc(Cl)cc3)cc2O)c1` [NUCC-0198354], “+ (>40 +)”.
Regarding `Cc1ccccc1-c1c[nH]nc1-c1ccc(OCc2ccc(Cl)cc2)cc1O` [NUCC-0198355], the Potency code entry is listed as “+ (>40 +)”.
With `Cc1ccccc1-c1cn(C)nc1-c1ccc(OCc2ccc(Cl)cc2)cc1O` [NUCC-0198356] the entry was “+ (>40 +)”; with `COc1ccccc1-c1c[nH]nc1-c1ccc(OCc2ccc(Cl)cc2)cc1O` [NUCC-0198357], “+ (>40 +)”; with `COc1ccccc1-c1cn(C)nc1-c1ccc(OCc2ccc(Cl)cc2)cc1O` [NUCC-0198358], “+ (>40 +)”.
The result for `Cc1cc(C)c(-c2c[nH]nc2-c2ccc(OCc3ccc(Cl)cc3)cc2O)c(C)c1` [NUCC-0198359] reads “++ (30-40 ++)”.
The result for `Cc1cc(C)c(-c2cn(C)nc2-c2ccc(OCc3ccc(Cl)cc3)cc2O)c(C)c1` [NUCC-0198360] reads “+ (>40 +)”.
Regarding `Cn1cc(-c2c[nH]nc2-c2ccc(OCc3ccc(Cl)cc3)cc2O)cn1` [NUCC-0198361], the Potency code entry is “+ (>40 +)”.
With `Cn1cc(-c2cn(C)nc2-c2ccc(OCc3ccc(Cl)cc3)cc2O)cn1` [NUCC-0198362], the Potency code result was “+ (>40 +)”.
With `N#Cc1ccc(-c2c(OCc3ccc(Cl)cc3)ccc(-c3cc(C(F)(F)F)[nH]n3)c2O)cc1` [NUCC-0198391] the entry was “++++ (<10 ++++)”.
With `Cn1nc(C(F)(F)F)cc1-c1ccc(OCc2ccc(Cl)cc2)c(-c2ccc(C#N)cc2)c1O` [NUCC-0198392] the entry was “+ (>40 +)”; with `Cn1nc(-c2ccc(OCc3ccc(Cl)cc3)c(-c3ccc(C#N)cc3)c2O)cc1C(F)(F)F` [NUCC-0198393], “+ (>40 +)”; with `NC(=O)c1ccc(-c2c(OCc3ccc(Cl)cc3)ccc(-c3cc(C(F)(F)F)[nH]n3)c2O)cc1` [NUCC-0198394], “++ (30-40 ++)”.
Take `CN/N=C(/C)c1ccc(-c2c(OCc3ccc(Cl)cc3)ccc(-c3cc(C(F)(F)F)[nH]n3)c2O)cc1` [NUCC-0198395]: the Potency code result is “+ (>40 +)”.
With `CN/N=C(/C)c1ccc(-c2c(OCc3ccc(Cl)cc3)ccc(-c3cc(C(F)(F)F)nn3C)c2O)cc1` [NUCC-0198396] the entry was “+ (>40 +)”.
The result for `CN/N=C(/C)c1ccc(-c2c(OCc3ccc(Cl)cc3)ccc(-c3cc(C(F)(F)F)n(C)n3)c2O)cc1` [NUCC-0198397] reads “+ (>40 +)”.
As for `N#Cc1cccc(-c2c(OCc3ccc(Cl)cc3)ccc(-c3cc(C(F)(F)F)[nH]n3)c2O)c1` [NUCC-0198398], the Potency code result is reported as “++++ (<10 ++++)”.
Regarding `Cn1nc(-c2ccc(OCc3ccc(Cl)cc3)c(-c3cccc(C#N)c3)c2O)cc1C(F)(F)F` [NUCC-0198400], the Potency code result is on record as “+ (>40 +)”.
With `NC(=O)c1cccc(-c2c(OCc3ccc(Cl)cc3)ccc(-c3cc(C(F)(F)F)[nH]n3)c2O)c1` [NUCC-0198401] the entry was “+ (>40 +)”; with `Cn1nc(C(F)(F)F)cc1-c1ccc(OCc2ccc(Cl)cc2)c(-c2cccc(C(N)=O)c2)c1O` [NUCC-0198402], “+ (>40 +)”; with `CN/N=C(/C)c1cccc(-c2c(OCc3ccc(Cl)cc3)ccc(-c3cc(C(F)(F)F)[nH]n3)c2O)c1` [NUCC-0198403], “+ (>40 +)”.
The result for `CN/N=C(\C)c1cccc(-c2c(OCc3ccc(Cl)cc3)ccc(-c3cc(C(F)(F)F)nn3C)c2O)c1` [NUCC-0198404] reads “+ (>40 +)”.

For the origin of these results see patent US20200392116A1, “SUBSTITUTED HETEROCYCLES AS c-MYC TARGETING AGENTS” (NORTHWESTERN UNIVERSITY, priority 2019, published 2020).
